Laboratory results taken from PMC6585621 (Clinical Pharmacology and Therapeutics, 2018).
Read-outs that look alike come from different tables or passages of the source. Blank lines part the entries; values can stand above or below the molecule they belong to.

Columns and labels:
[1] = type: in vivo, human; conditions: for t max / M1:dasabuvir AUC0‐23h ratio / M1:dasabuvir AUC0‐∞ ratio / t ½: after dasabuvir 250 mg oral; for t max: median (range); for M1:dasabuvir AUC0‐23h ratio / M1:dasabuvir AUC0‐∞ ratio / t ½: geometric mean (geometric CV); for effect of ritonavir on pharmacokinetics compared to pretreatment with placebo: ritonavir 100 mg twice daily
[2] = cited from earlier work
CYP3A4 = conditions: in the absence of ritonavir; cited from earlier work
[3] = cited from earlier work; remark: listed apart in the source
[4] = Pharmacokinetics of clopidogrel and its metabolites with and without ritonavir; type: in vivo, human; conditions: for C max / AUC0‐4h / AUC0‐∞ / t ½ / t max: after clopidogrel 300 mg oral; for C max / AUC0‐4h / AUC0‐∞ / t ½: geometric mean (geometric CV); for t max: median (range); for AUC0‐4h, clopidogrel and ritonavir phase to clopidogrel phase ratio / AUC0‐∞, clopidogrel and ritonavir phase to clopidogrel phase ratio / C max, clopidogrel and ritonavir phase to clopidogrel phase ratio / t ½, clopidogrel and ritonavir phase to clopidogrel phase ratio: geometric mean ratio (90% CI)
[5] = clopidogrel and ritonavir phase
[6] = clopidogrel and ritonavir phase (ritonavir 100 mg twice daily)

C max [4, 6]: 12,300 (34) ng/mL
AUC0‐4h [4, 5]: 27,800 (37) ng·h/mL
AUC0‐∞ [4, 5]: 41,600 (37) ng·h/mL
t ½ [4, 5]: 2.46 (12) h
t max [4, 5]: 0.92 (0.92–1.5) h
AUC0‐4h ([4]; clopidogrel phase): 26,800 (29) ng·h/mL
AUC0‐∞ ([4]; clopidogrel phase): 44,300 (26) ng·h/mL
C max ([4]; clopidogrel phase): 12,200 (22) ng/mL
t ½ ([4]; clopidogrel phase): 2.98 (21) h
t max ([4]; clopidogrel phase): 0.92 (0.92–1.5) h
AUC0‐4h, clopidogrel and ritonavir phase to clopidogrel phase ratio [4]: 1.04 (0.91–1.18)
AUC0‐∞, clopidogrel and ritonavir phase to clopidogrel phase ratio [4]: 0.94 (0.80–1.10)
C max, clopidogrel and ritonavir phase to clopidogrel phase ratio [4]: 1.01 (0.89–1.15)
t ½, clopidogrel and ritonavir phase to clopidogrel phase ratio [4]: 0.83 (0.72–0.95); P = 0.03
Structure (SMILES): O=C(O)[C@H](c1ccccc1Cl)N1CCc2sccc2C1 [Clopidogrel carboxylic acid, clopidogrel carboxylic acid]

C max [4, 6]: 1,610 (43) ng/mL
AUC0‐4h [4, 5]: 4,030 (45) ng·h/mL
AUC0‐∞ [4, 5]: 6,430 (46) ng·h/mL
t ½ [4, 5]: 2.02 (8.5) h
t max [4, 5]: 1.5 (1.5–3.0) h
AUC0‐4h ([4]; clopidogrel phase): 3,630 (56) ng·h/mL
AUC0‐∞ ([4]; clopidogrel phase): 6,840 (53) ng·h/mL
C max ([4]; clopidogrel phase): 1,420 (57) ng/mL
t ½ ([4]; clopidogrel phase): 2.83 (19) h
t max ([4]; clopidogrel phase): 1.75 (0.92–2.0) h
AUC0‐4h, clopidogrel and ritonavir phase to clopidogrel phase ratio [4]: 1.11 (0.86–1.43)
AUC0‐∞, clopidogrel and ritonavir phase to clopidogrel phase ratio [4]: 0.94 (0.71–1.23)
C max, clopidogrel and ritonavir phase to clopidogrel phase ratio [4]: 1.13 (0.86–1.47)
t ½, clopidogrel and ritonavir phase to clopidogrel phase ratio [4]: 0.71 (0.63–0.81); P = 0.0007
Structure (SMILES): O=C(O)[C@H]1O[C@@H](OC(=O)[C@H](c2ccccc2Cl)N2CCc3sccc3C2)[C@H](O)[C@@H](O)[C@@H]1O [Clopidogrel acyl‐β‐D‐glucuronide, clopidogrel acyl‐β‐D‐glucuronide]

The remaining lines, values behind:

Structure (SMILES): COc1c(-c2ccc3cc(NS(C)(=O)=O)ccc3c2)cc(-n2ccc(=O)[nH]c2=O)cc1C(C)(C)CO [M1]
t max [1, 5]: 4.0 (3.0–23) h
M1:dasabuvir AUC0‐23h ratio ([1]; clopidogrel phase): 0.0102 (42)
M1:dasabuvir AUC0‐∞ ratio ([1]; clopidogrel phase): 0.0135 (32)
t ½ ([1]; clopidogrel phase): 17.3 (23) h
t max ([1]; clopidogrel phase): 4.0 (3.0–23) h
M1:dasabuvir AUC0‐23h ratio ([1]; placebo phase): 0.0795 (28)
M1:dasabuvir AUC0‐∞ ratio ([1]; placebo phase): 0.0774 (29)
t ½ ([1]; placebo phase): 7.87 (32) h
t max ([1]; placebo phase): 4.0 (2.0–4.0) h
M1:dasabuvir AUC0‐23h ratio ([1]; ritonavir phase): 0.0888 (35)
M1:dasabuvir AUC0‐∞ ratio ([1]; ritonavir phase): 0.0786 (38)
t ½ ([1]; ritonavir phase): 7.35 (25) h
t max ([1]; ritonavir phase): 4.0 (3.0–6.0) h
AUC0‐23h in clopidogrel phase as % of that during placebo phase ([1]; geometric mean): 41%
AUC0‐23h in clopidogrel–ritonavir phase as % of that during the ritonavir phase ([1]; geometric mean): 48%
C max in clopidogrel phase as % of that in the placebo phase ([1]; geometric mean): 20%
C max in clopidogrel–ritonavir phase as % of that during the ritonavir phase ([1]; geometric mean): 22%
M1:dasabuvir AUC0‐∞ ratio in clopidogrel phase as % of that with placebo ([1]; geometric mean): 17%
AUC0‐23h, clopidogrel and ritonavir phase to ritonavir phase ratio ([1]; geometric mean ratio (90% CI)): 0.48 (0.32–0.71) P = 0.002
AUC0‐23h, clopidogrel phase to placebo phase ratio ([1]; geometric mean ratio (90% CI)): 0.41 (0.26–0.65) P = 0.001
C max, clopidogrel and ritonavir phase to ritonavir phase ratio ([1]; geometric mean ratio (90% CI)): 0.22 (0.13–0.36) P = 0.00002
C max, clopidogrel phase to placebo phase ratio ([1]; geometric mean ratio (90% CI)): 0.20 (0.11–0.36) P = 0.00006
M1:dasabuvir AUC0‐23h ratio, clopidogrel and ritonavir phase to ritonavir phase ratio ([1]; geometric mean ratio (90% CI)): 0.14 (0.12–0.17) P = 5·10^−11
M1:dasabuvir AUC0‐23h ratio, clopidogrel phase to placebo phase ratio ([1]; geometric mean ratio (90% CI)): 0.13 (0.11–0.15) P = 5·10^−12
M1:dasabuvir AUC0‐∞ ratio, clopidogrel and ritonavir phase to ritonavir phase ratio ([1]; geometric mean ratio (90% CI)): 0.20 (0.17–0.25) P = 5·10^−10
M1:dasabuvir AUC0‐∞ ratio, clopidogrel phase to placebo phase ratio ([1]; geometric mean ratio (90% CI)): 0.17 (0.16–0.19) P = 2·10^−14
t ½, clopidogrel and ritonavir phase to ritonavir phase ratio ([1]; geometric mean ratio (90% CI)): 1.92 (1.57–2.34) P = 0.00001
t ½, clopidogrel phase to placebo phase ratio ([1]; geometric mean ratio (90% CI)): 2.20 (1.72–2.81) P = 0.00001
effect of ritonavir on pharmacokinetics compared to pretreatment with placebo [1]: did not cause significant changes

Structure (SMILES): COc1c(-c2ccc3cc(NS(C)(=O)=O)ccc3c2)cc(-n2ccc(=O)[nH]c2=O)cc1C(C)(C)C [Dasabuvir, dasabuvir, reference compound]
highest individual increase in AUC0‐∞, clopidogrel phase vs placebo phase ([1]; 12 subjects): > 10 fold
range of individual increases of AUC0‐∞ by clopidogrel compared with placebo ([1]; 12 subjects, clopidogrel phase vs placebo phase): 2.0–10.1 fold
t ½ ([1]; ritonavir phase): 8.22 (25) h
AUC0‐∞ in clopidogrel phase as % of that during placebo ([1]; geometric mean): 467%
AUC0‐∞ in clopidogrel–ritonavir phase as % of that during the ritonavir phase ([1]; geometric mean): 389%
C max in clopidogrel–ritonavir phase as % of that during the ritonavir phase ([1]; geometric mean): 182%
AUC0‐23h, clopidogrel and ritonavir phase to ritonavir phase ratio ([1]; geometric mean ratio (90% CI)): 3.13 (2.17–4.52) P = 0.00002
AUC0‐∞, clopidogrel phase to placebo phase ratio ([1]; geometric mean ratio (90% CI)): 4.67 (3.23–6.74) P = 8·10^−7
C max, clopidogrel and ritonavir phase to ritonavir phase ratio ([1]; geometric mean ratio (90% CI)): 1.82 (1.27–2.61) P = 0.004
C max, clopidogrel phase to placebo phase ratio ([1]; geometric mean ratio (90% CI)): 1.63 (1.03–2.57) P = 0.07
t ½, clopidogrel and ritonavir phase to ritonavir phase ratio ([1]; geometric mean ratio (90% CI)): 1.40 (1.14–1.73) P = 0.005
t ½, clopidogrel phase to placebo phase ratio ([1]; geometric mean ratio (90% CI)): 1.84 (1.59–2.13) P = 1·10^−6
contribution of CYP2C8 to metabolism ([1]; implied from clopidogrel interaction, both with and without ritonavir): exceed 80%
effect of ritonavir on pharmacokinetics compared to pretreatment with placebo [1]: did not cause significant changes
trend of lower concentrations in the ritonavir phase than in the placebo phase ([1]; statistically insignificant): –20%
prolongation of half‐life (t ½) by concomitant gemfibrozil ([2]; humans): 18 fold
increase of AUC by concomitant gemfibrozil ([2]; humans, during ritonavir coadministration): 11 fold
fraction metabolized by CYP2C8 ([2]; in the presence of the CYP3A4 inhibitor ritonavir): > 0.9
share of overall metabolism for which CYP3A4 is responsible (CYP3A4): about 30%
PBPK-predicted increase of AUC by clopidogrel [3]: 1.9–2.8 fold
implied reduction in clearance by clopidogrel (PBPK prediction) [3]: 47–64%

Structure (SMILES): CCc1ccc(CCOc2ccc(CC3SC(=O)NC3=O)cc2)nc1 (stereo not shown) [pioglitazone]
increase of AUC of CYP2C8 substrate by gemfibrozil [2]: about 3 fold
